We go through 29 compounds from patent publication US8846947B2, “Benzimidazoles and related analogs as sirtuin modulators” (GlaxoSmithKline LLC, priority 2008, dated 2014).

Where a name gives a salt, the structure may show the parent alone.

This assay concerns the target T1, SIRT1 (Homo sapiens, UniProt Q96EB6).
T1 sequence (Q96EB6 1-747): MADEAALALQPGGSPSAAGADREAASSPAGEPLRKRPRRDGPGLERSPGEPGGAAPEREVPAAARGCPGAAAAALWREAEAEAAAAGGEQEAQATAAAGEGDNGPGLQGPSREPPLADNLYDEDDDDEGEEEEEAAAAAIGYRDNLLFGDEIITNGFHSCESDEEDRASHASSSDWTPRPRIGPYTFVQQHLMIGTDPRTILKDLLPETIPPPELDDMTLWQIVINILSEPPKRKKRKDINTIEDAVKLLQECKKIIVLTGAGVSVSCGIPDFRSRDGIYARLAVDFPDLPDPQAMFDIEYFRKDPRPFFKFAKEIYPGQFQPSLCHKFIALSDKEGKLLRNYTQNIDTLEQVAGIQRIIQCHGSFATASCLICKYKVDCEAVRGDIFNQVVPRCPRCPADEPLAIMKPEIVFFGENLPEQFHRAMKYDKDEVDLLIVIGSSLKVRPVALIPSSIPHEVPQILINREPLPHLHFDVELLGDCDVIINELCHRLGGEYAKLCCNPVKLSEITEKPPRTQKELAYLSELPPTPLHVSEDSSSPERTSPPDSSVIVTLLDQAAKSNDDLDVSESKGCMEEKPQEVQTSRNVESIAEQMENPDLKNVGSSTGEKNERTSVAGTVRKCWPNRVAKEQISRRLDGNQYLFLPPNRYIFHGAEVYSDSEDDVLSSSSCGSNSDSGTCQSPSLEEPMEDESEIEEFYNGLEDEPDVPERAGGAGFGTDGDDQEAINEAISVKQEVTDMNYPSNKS
Kind of assay: Mass spectrometry based SIRT1 deacetylase activation assay (acetylated p53-derived peptide substrate). The class given is biochemical. From the text:
A mass spectrometry based assay was used to identify modulators of SIRT1 activity. The mass spectrometry based assay utilizes a peptide having 20 amino acid residues as follows: Ac-EE-K(biotin)-GQSTSSHSK(Ac)NleSTEG-K(5TMR)-EE-NH2 (SEQ ID NO: 1) wherein K(Ac) is an acetylated lysine residue and Nle is a norleucine. The peptide is labeled with the fluorophore 5TMR (excitation 540 nm/emission 580 nm) at the C-terminus. The sequence of the peptide substrate is based on p53 with several modifications. In addition, the methionine residue naturally present in the sequence was replaced with the norleucine because the methionine may be susceptible to oxidation during synthesis and purification.
The mass spectrometry assay is conducted as follows: 0.5 μM peptide substrate and 120 μM βNAD^+ is incubated with 10 nM SIRT1 for 25 minutes at 25° C. in a reaction buffer (50 mM Tris-acetate pH 8, 137 mM NaCl, 2.7 mM KCl, 1 mM MgCl2, 5 mM DTT, 0.05% BSA). Test compounds may be added to the reaction as described above. […] After the 25 minute incubation with SIRT1, 10 μL of 10% formic acid is added to stop the reaction. Reactions are sealed and frozen for later mass spec analysis. Determination of the mass of the substrate peptide allows for precise determination of the degree of acetylation (i.e. starting material) as compared to deacetylated peptide (product).
A control for inhibition of sirtuin activity is conducted by adding 1 μL of 500 mM nicotinamide as a negative control at the start of the reaction (e.g., permits determination of maximum sirtuin inhibition). A control for activation of sirtuin activity is conducted using 10 nM of sirtuin protein, with 1 μL of DMSO in place of compound, to determine the amount of deacetylation of the substrate at a given timepoint within the linear range of the assay. This timepoint is the same as that used for test compounds and, within the linear range, the endpoint represents a change in velocity.
For the above assay, SIRT1 protein was expressed and purified as follows. […] The protein was expressed by induction with 1 mM IPTG as an N-terminal His-tag fusion protein at 18° C. overnight and harvested at 30,000×g. Cells were lysed with lysozyme in lysis buffer (50 mM Tris-HCl, 2 mM Tris[2-carboxyethyl]phosphine (TCEP), 10 μM ZnCl2, 200 mM NaCl) and further treated with sonication for 10 min for complete lysis. The protein was purified over a Ni-NTA column (Amersham) and fractions containing pure protein were pooled, concentrated and run over a sizing column (Sephadex S200 26/60 global). The peak containing soluble protein was collected and run on an Ion-exchange column (MonoQ). Gradient elution (200 mM-500 mM NaCl) yielded pure protein. This protein was concentrated and dialyzed against dialysis buffer (20 mM Tris-HCl, 2 mM TCEP) overnight. The protein was aliquoted and frozen at −80° C. until further use.
Sirtuin modulating compounds that activated SIRT1 were identified using the assay described above and are shown below in Table 1. The EC1.5 values for the activating compounds are represented by A (EC1.5<1.0 uM), B (EC1.5 1-25 uM), C (EC1.5 >25 uM). The percent maximum fold activation is represented by A (Fold activation >200%) or B (Fold Activation <200%).
`O=C(Nc1nccs1)c1cccc2[nH]c(-c3ccco3)nc12` [Compound 249]: the EC1.5 entry is “B (EC1.5 1-25 uM)” and the “Fold Act. (percent maximum fold activation)” value was “A (Fold activation >200%)”.

`O=C(Nc1nccs1)c1cccc2[nH]c(-c3cccnc3N3CCOCC3)nc12` [Compound 250, 2-(2-morpholinopyridin-3-yl)-N-(thiazol-2-yl)-1H-benzo[d]imidazole-4-carboxamide]: the EC1.5 result is “B (EC1.5 1-25 uM)” and the “Fold Act. (percent maximum fold activation)” value is “A (Fold activation >200%)”.

Turning to `O=C(Nc1nccs1)c1cccc2[nH]c(-c3ccc(N4CCNCC4)nc3)nc12` [Compound 251, 2-(6-(piperazin-1-yl)pyridin-3-yl)-N-(thiazol-2-yl)-1H-benzo[d]imidazole-4-carboxamide hydrochloride], the EC1.5 result is recorded as “A (EC1.5<1.0 uM)” and the “Fold Act. (percent maximum fold activation)” value is given as “A (Fold activation >200%)”.

Take `O=C(NCc1ccccn1)c1cccc2[nH]c(-c3cccc(C(F)(F)F)c3)nc12` [Compound 252]: the EC1.5 entry is listed as “B (EC1.5 1-25 uM)” and the “Fold Act. (percent maximum fold activation)” value was “A (Fold activation >200%)”.

For `Cn1nc(-c2ccccc2)cc1-c1nc2c(C(=O)Nc3nccs3)cccc2[nH]1` [Compound 253], the EC1.5 result is given as “A (EC1.5<1.0 uM)” and the “Fold Act. (percent maximum fold activation)” value is “A (Fold activation >200%)”.

Regarding `O=C(Nc1nccs1)c1cccc2[nH]c(-c3ccnn3-c3ccccc3)nc12` [Compound 254], the EC1.5 result was “A (EC1.5<1.0 uM)” and the “Fold Act. (percent maximum fold activation)” value is on record as “A (Fold activation >200%)”.

As to `O=C(Nc1nccs1)c1cccc2[nH]c(-c3ccccc3-c3ccccc3)nc12` [Compound 255], the EC1.5 result is “B (EC1.5 1-25 uM)” and the “Fold Act. (percent maximum fold activation)” value was “A (Fold activation >200%)”.

For `O=C(Nc1nccs1)c1cccc2[nH]c(-c3ccccc3N3CCOCC3)nc12` [Compound 256], the EC1.5 result is reported as “B (EC1.5 1-25 uM)” and the “Fold Act. (percent maximum fold activation)” value was “A (Fold activation >200%)”.

In the case of `O=C(Nc1nccs1)c1cccc2[nH]c(-c3cccc(Cl)c3F)nc12` [Compound 257], the EC1.5 entry was “B (EC1.5 1-25 uM)” and the “Fold Act. (percent maximum fold activation)” value is recorded as “A (Fold activation >200%)”.

Consider `O=C(Nc1nccs1)c1cccc2[nH]c(-c3cc(Cl)ccc3C(F)(F)F)nc12` [Compound 258], for which the EC1.5 result is given as “B (EC1.5 1-25 uM)” and the “Fold Act. (percent maximum fold activation)” value was “A (Fold activation >200%)”.

Turning to `CN(C)CCNc1ccc(-c2nc3c(C(=O)Nc4nccs4)cccc3[nH]2)cn1` [Compound 259], the EC1.5 result is listed as “B (EC1.5 1-25 uM)” and the “Fold Act. (percent maximum fold activation)” value is listed as “A (Fold activation >200%)”.

Take `Cc1cnc(NC(=O)c2cccc3[nH]c(-c4cccc(C(F)(F)F)c4)nc23)s1` [Compound 260]: the EC1.5 entry was “B (EC1.5 1-25 uM)” and the “Fold Act. (percent maximum fold activation)” value is recorded as “B (Fold Activation <200%)”.

`Cc1noc(C)c1NC(=O)c1cccc2[nH]c(-c3cccc(C(F)(F)F)c3)nc12` [Compound 261]: the EC1.5 result was “C (EC1.5 >25 uM)” and the “Fold Act. (percent maximum fold activation)” value is “B (Fold Activation <200%)”.

Consider `O=C(Nc1ccncc1)c1cccc2[nH]c(-c3ccccc3C(F)(F)F)nc12` [Compound 262], for which the EC1.5 entry is reported as “A (EC1.5<1.0 uM)” and the “Fold Act. (percent maximum fold activation)” value was “A (Fold activation >200%)”.

As to `O=C(Nc1nccs1)c1cccc2[nH]c(-c3ccc(F)cc3C(F)(F)F)nc12` [Compound 263], the EC1.5 result is recorded as “A (EC1.5<1.0 uM)” and the “Fold Act. (percent maximum fold activation)” value is “A (Fold activation >200%)”.

As for `O=C(Nc1nccs1)c1cccc2[nH]c(-c3c(F)cccc3C(F)(F)F)nc12` [Compound 264], the EC1.5 entry is “B (EC1.5 1-25 uM)” and the “Fold Act. (percent maximum fold activation)” value was “A (Fold activation >200%)”.

Consider `O=C(Nc1nccs1)c1cccc2[nH]c(-c3c(F)cccc3F)nc12` [Compound 265], for which the EC1.5 entry was “B (EC1.5 1-25 uM)” and the “Fold Act. (percent maximum fold activation)” value was “A (Fold activation >200%)”.

Turning to `O=C(Nc1nccs1)c1cccc2[nH]c(-c3c(F)cccc3Cl)nc12` [Compound 266], the EC1.5 entry is listed as “B (EC1.5 1-25 uM)” and the “Fold Act. (percent maximum fold activation)” value is given as “A (Fold activation >200%)”.

Regarding `O=C(Nc1nccs1)c1cccc2[nH]c(-c3ccccc3CN3CCOCC3)nc12` [Compound 267], the EC1.5 entry is “B (EC1.5 1-25 uM)” and the “Fold Act. (percent maximum fold activation)” value is “A (Fold activation >200%)”.

As for `O=C(Nc1nccs1)c1cccc2[nH]c(-c3ccc(N4CCOCC4)cc3)nc12` [Compound 268], the EC1.5 entry was “A (EC1.5<1.0 uM)” and the “Fold Act. (percent maximum fold activation)” value is given as “A (Fold activation >200%)”.

In the case of `O=C(Nc1nccs1)c1cccc2[nH]c(-c3ccnc(N4CCOCC4)c3)nc12` [Compound 269], the EC1.5 entry is “A (EC1.5<1.0 uM)” and the “Fold Act. (percent maximum fold activation)” value is “A (Fold activation >200%)”.

With `O=C(NCc1cccnc1)c1cccc2[nH]c(-c3cccc(C(F)(F)F)c3)nc12` [Compound 270], the EC1.5 entry was “C (EC1.5 >25 uM)” and the “Fold Act. (percent maximum fold activation)” value is listed as “B (Fold Activation <200%)”.

Turning to `O=C(NCc1ccncc1)c1cccc2[nH]c(-c3cccc(C(F)(F)F)c3)nc12` [Compound 271], the EC1.5 entry is “C (EC1.5 >25 uM)” and the “Fold Act. (percent maximum fold activation)” value is “B (Fold Activation <200%)”.

Regarding `O=C(NC1CN2CCC1CC2)c1cccc2[nH]c(-c3cccc(C(F)(F)F)c3)nc12` (stereo not shown) [Compound 272], the EC1.5 result is recorded as “B (EC1.5 1-25 uM)” and the “Fold Act. (percent maximum fold activation)” value is “A (Fold activation >200%)”.

With `O=C(NC1CCOC1=O)c1cccc2[nH]c(-c3cccc(C(F)(F)F)c3)nc12` (stereo not shown) [Compound 273], the EC1.5 entry was “B (EC1.5 1-25 uM)” and the “Fold Act. (percent maximum fold activation)” value is recorded as “A (Fold activation >200%)”.

`Cc1nc(NC(=O)c2cccc3[nH]c(-c4cccc(C(F)(F)F)c4)nc23)sc1C` [Compound 274]: the EC1.5 result is recorded as “A (EC1.5<1.0 uM)” and the “Fold Act. (percent maximum fold activation)” value is “A (Fold activation >200%)”.

Take `O=C(NC1CCOCC1)c1cccc2[nH]c(-c3cccc(C(F)(F)F)c3)nc12` [Compound 275]: the EC1.5 result is listed as “B (EC1.5 1-25 uM)” and the “Fold Act. (percent maximum fold activation)” value is given as “A (Fold activation >200%)”.

Take `O=C(NC1CCCC1)c1cccc2[nH]c(-c3cccc(C(F)(F)F)c3)nc12` [Compound 276]: the EC1.5 result was “C (EC1.5 >25 uM)” and the “Fold Act. (percent maximum fold activation)” value is listed as “B (Fold Activation <200%)”.

Consider `O=C(Nc1ccncn1)c1cccc2[nH]c(-c3cccc(C(F)(F)F)c3)nc12` [Compound 277], for which the EC1.5 entry is “B (EC1.5 1-25 uM)” and the “Fold Act. (percent maximum fold activation)” value is listed as “A (Fold activation >200%)”.
